Legend:
Assay in all cases: split-luciferase competition binding
SGK3 (human) = SGK3 (human) (UniProt Q96BR1); conditions: compound 10.0 µM
PRKCH (human) = PRKCH (human) (UniProt P24723); conditions: compound 10.0 µM
RPS6KA2 KD1 (human) = RPS6KA2 KD1 (human) (UniProt Q15349); conditions: compound 10.0 µM
DMPK (human) = DMPK (human) (UniProt Q09013); conditions: compound 10.0 µM
AKT2 (human) = AKT2 (human) (UniProt P31751); conditions: compound 10.0 µM
PRKCI (human) = PRKCI (human) (UniProt P41743); conditions: compound 10.0 µM
STK32B (human) = STK32B (human) (UniProt Q9NY57); conditions: compound 10.0 µM
AURKC (human) = AURKC (human) (UniProt Q9UQB9); conditions: compound 10.0 µM
Sequence of AURKC (human) (Q9UQB9 whole entry, looked up): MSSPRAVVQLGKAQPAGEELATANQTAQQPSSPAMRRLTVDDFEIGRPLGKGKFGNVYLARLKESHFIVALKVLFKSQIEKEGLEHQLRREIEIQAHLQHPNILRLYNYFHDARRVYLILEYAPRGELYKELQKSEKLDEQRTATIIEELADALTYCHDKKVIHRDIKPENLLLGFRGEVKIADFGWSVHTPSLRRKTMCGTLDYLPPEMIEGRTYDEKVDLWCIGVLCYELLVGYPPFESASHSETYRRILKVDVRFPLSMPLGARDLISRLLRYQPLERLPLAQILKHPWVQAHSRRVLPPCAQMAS

PRKCD (human) = PRKCD (human) (UniProt Q05655); conditions: compound 10.0 µM
RPS6KA1 KD1 (human) = RPS6KA1 KD1 (human) (UniProt Q15418); conditions: compound 10.0 µM
PRKX (human) = PRKX (human) (UniProt P51817); conditions: compound 10.0 µM
Sequence of PRKX (human) (P51817 whole entry, looked up): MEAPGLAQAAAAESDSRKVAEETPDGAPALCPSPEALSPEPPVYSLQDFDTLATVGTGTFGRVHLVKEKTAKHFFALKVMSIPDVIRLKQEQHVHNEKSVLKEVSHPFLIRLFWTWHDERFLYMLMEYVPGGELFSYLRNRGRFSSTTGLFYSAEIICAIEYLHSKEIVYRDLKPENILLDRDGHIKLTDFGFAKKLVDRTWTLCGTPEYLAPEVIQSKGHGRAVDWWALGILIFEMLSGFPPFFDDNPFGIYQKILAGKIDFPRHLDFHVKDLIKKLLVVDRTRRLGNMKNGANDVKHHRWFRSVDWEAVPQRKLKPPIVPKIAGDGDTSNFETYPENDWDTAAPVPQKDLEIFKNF

RPS6KA5 KD1 (human) = RPS6KA5 KD1 (human) (UniProt O75582); conditions: compound 10.0 µM
PRKCQ (human) = PRKCQ (human) (UniProt Q04759); conditions: compound 10.0 µM
Sequence of PRKCQ (human) (Q04759 whole entry, looked up): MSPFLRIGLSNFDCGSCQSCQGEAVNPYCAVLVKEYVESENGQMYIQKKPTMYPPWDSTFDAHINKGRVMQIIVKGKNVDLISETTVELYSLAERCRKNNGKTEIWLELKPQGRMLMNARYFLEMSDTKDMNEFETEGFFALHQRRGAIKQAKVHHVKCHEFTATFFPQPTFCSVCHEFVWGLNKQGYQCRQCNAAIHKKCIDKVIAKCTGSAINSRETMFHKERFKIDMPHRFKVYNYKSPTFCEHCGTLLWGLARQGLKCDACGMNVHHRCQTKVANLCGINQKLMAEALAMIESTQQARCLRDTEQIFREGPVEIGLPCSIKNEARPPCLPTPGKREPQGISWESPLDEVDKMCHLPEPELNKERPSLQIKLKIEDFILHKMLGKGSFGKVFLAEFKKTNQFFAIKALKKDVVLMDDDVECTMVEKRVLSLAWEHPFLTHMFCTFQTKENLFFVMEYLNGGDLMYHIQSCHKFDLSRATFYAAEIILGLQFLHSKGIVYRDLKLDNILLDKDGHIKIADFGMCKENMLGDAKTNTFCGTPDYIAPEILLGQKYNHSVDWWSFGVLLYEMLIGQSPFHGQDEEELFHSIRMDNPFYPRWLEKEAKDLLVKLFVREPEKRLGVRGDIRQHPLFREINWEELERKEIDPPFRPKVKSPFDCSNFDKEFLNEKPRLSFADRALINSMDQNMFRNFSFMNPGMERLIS

AURKB (human) = AURKB (human) (UniProt Q96GD4); conditions: compound 10.0 µM
Sequence of AURKB (human) (Q96GD4 whole entry, looked up): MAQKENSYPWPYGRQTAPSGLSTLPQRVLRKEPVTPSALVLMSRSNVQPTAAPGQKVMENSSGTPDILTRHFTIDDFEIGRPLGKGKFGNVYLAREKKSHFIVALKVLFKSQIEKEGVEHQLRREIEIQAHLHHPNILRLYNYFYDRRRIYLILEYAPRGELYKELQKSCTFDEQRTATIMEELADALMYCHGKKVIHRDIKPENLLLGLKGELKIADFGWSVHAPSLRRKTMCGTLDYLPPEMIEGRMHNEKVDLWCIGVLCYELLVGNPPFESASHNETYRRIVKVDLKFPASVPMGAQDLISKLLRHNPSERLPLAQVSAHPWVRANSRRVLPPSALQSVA

PRKCE (human) = PRKCE (human) (UniProt Q02156); conditions: compound 10.0 µM
RPS6KA6 KD1 (human) = RPS6KA6 KD1 (human) (UniProt Q9UK32); conditions: compound 10.0 µM
PRKCG (human) = PRKCG (human) (UniProt P05129); conditions: compound 10.0 µM
PDPK1 (human) = PDPK1 (human) (UniProt O15530); conditions: compound 10.0 µM
RPS6KA4 KD1 (human) = RPS6KA4 KD1 (human) (UniProt O75676); conditions: compound 10.0 µM
Sequence of RPS6KA4 KD1 (human) (O75676 whole entry, looked up): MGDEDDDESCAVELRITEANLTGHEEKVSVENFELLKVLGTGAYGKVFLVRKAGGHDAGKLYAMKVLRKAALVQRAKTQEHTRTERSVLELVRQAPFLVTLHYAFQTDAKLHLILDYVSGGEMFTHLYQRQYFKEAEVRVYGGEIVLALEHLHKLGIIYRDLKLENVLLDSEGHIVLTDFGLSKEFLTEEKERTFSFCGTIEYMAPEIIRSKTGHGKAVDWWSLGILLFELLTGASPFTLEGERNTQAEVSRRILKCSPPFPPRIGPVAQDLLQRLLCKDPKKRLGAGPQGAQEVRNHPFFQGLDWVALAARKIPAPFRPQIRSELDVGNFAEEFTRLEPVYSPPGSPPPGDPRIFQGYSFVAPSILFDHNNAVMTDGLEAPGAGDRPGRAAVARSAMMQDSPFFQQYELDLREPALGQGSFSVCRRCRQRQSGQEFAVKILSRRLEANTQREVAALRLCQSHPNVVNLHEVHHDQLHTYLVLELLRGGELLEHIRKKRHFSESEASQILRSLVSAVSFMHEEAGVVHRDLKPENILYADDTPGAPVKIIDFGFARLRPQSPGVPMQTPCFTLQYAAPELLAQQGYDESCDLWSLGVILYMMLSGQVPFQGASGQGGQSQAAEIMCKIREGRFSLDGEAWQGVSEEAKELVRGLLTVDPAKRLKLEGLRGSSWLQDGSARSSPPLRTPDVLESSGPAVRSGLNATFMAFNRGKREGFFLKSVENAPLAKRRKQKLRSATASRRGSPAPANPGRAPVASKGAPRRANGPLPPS

AURKA (human) = AURKA (human) (UniProt O14965); conditions: compound 10.0 µM
PKN1 (human) = PKN1 (human) (UniProt Q16512); conditions: compound 10.0 µM
SGK2 (human) = SGK2 (human) (UniProt Q9HBY8); conditions: compound 10.0 µM
AKT1 (human) = AKT1 (human) (UniProt P31749); conditions: compound 10.0 µM
AKT3 (human) = AKT3 (human) (UniProt Q9Y243); conditions: compound 10.0 µM
RPS6KA3 KD1 (human) = RPS6KA3 KD1 (human) (UniProt P51812); conditions: compound 10.0 µM
PRKACB (human) = PRKACB (human) (UniProt P22694); conditions: compound 10.0 µM
PRKACA (mouse) = conditions: compound 10.0 µM; accession and sequence are those of the human protein

Sequence of PRKCH (human) (P24723 whole entry, looked up): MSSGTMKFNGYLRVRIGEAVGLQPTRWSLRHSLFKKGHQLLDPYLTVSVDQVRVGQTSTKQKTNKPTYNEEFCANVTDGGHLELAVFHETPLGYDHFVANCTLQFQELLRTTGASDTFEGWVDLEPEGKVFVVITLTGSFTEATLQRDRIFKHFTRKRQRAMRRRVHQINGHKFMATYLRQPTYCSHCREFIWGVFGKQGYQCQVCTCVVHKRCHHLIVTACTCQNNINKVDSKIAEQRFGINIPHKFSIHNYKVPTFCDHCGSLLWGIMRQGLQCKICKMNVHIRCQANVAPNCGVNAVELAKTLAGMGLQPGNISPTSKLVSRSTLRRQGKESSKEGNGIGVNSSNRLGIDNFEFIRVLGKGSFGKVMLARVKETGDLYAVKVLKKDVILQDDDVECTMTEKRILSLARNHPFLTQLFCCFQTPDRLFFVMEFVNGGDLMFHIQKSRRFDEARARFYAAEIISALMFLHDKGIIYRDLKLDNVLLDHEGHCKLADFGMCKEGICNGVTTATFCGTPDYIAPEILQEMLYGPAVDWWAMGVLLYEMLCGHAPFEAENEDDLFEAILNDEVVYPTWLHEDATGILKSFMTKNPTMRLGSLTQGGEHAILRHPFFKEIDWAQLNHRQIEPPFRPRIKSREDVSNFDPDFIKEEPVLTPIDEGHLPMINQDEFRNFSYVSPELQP
Sequence of DMPK (human) (Q09013 whole entry, looked up): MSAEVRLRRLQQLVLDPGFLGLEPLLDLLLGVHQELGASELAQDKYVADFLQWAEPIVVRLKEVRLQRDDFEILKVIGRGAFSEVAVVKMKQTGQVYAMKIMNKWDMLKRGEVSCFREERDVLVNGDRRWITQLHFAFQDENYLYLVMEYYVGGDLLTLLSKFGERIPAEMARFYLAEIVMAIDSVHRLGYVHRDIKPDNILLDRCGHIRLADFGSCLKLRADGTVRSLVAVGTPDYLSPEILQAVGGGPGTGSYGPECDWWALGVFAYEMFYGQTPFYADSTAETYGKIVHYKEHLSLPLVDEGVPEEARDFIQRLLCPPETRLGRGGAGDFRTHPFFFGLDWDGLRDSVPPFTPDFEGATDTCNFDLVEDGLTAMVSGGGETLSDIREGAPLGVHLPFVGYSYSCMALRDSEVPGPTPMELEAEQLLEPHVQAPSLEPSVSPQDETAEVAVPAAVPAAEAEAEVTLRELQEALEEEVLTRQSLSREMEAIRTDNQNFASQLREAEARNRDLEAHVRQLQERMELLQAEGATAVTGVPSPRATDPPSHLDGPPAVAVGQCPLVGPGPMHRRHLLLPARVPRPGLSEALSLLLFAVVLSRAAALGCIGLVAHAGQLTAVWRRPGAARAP
Sequence of RPS6KA2 KD1 (human) (Q15349 whole entry, looked up): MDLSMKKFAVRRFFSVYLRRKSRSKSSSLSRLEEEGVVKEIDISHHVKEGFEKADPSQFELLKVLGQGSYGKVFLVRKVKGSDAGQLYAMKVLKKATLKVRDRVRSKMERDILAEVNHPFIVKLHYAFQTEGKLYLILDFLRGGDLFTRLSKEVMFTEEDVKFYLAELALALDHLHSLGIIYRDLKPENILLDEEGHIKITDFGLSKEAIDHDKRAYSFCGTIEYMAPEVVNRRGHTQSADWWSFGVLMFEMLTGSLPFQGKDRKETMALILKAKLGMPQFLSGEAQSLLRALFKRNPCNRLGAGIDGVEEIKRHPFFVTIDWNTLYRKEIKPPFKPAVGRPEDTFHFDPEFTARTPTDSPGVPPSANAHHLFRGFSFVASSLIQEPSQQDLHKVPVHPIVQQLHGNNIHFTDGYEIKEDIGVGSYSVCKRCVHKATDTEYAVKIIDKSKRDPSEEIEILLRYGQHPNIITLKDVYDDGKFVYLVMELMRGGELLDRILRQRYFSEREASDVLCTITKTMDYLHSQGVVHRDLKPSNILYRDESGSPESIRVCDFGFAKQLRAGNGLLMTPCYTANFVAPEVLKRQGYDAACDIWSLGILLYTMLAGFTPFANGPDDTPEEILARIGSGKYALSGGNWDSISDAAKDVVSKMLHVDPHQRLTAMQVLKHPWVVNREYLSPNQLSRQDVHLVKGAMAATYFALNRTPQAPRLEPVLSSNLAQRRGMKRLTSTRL
Sequence of AKT2 (human) (P31751 whole entry, looked up): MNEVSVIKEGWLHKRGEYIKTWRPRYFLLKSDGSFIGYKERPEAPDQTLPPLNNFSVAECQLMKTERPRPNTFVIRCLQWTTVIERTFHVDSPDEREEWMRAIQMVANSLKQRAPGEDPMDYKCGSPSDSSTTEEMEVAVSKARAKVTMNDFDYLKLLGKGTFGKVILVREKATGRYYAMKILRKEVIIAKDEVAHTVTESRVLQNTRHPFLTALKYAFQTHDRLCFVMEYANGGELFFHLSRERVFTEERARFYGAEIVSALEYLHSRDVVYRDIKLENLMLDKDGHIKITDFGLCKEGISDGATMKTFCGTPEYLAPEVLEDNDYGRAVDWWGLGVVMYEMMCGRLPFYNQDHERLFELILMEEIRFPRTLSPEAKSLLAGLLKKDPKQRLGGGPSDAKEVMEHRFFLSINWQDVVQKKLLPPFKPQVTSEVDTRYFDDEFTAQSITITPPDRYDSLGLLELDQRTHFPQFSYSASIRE

| Compound | inhibition (SGK3 (human)) | inhibition (PRKCH (human)) | inhibition (RPS6KA2 KD1 (human)) | inhibition (DMPK (human)) | inhibition (PRKCI (human)) | inhibition (STK32B (human)) | inhibition (AURKC (human)) | inhibition (PRKCD (human)) | inhibition (RPS6KA1 KD1 (human)) | inhibition (PRKX (human)) | inhibition (PRKCQ (human)) | inhibition (AURKB (human)) | inhibition (PRKCE (human)) | inhibition (RPS6KA6 KD1 (human)) | inhibition (PDPK1 (human)) | inhibition (RPS6KA4 KD1 (human)) | inhibition (AURKA (human)) | inhibition (PKN1 (human)) | inhibition (AKT1 (human)) | inhibition (AKT3 (human)) | further results |
| --- | --- | --- | --- | --- | --- | --- | --- | --- | --- | --- | --- | --- | --- | --- | --- | --- | --- | --- | --- | --- | --- |
| O=S(=O)(c1cccc2cnccc12)N1CCCNCC1 | 0% | 17% | 0% | 0% | 38% | 0% | 6% | 1% | 2% | 77% | 1% | 0% | 0% | 0% | 0% | 0% | 0% | 0% | 0% | 0% | inhibition (AKT2 (human)): 0%; inhibition (RPS6KA5 KD1 (human)): 0%; inhibition (PRKCG (human)): 0%; inhibition (SGK2 (human)): 1% |
| Cc1ccc(-c2nn(C(C)(C)C)c3ncnc(N)c23)cc1 | 0% | 8% | 1% | 28% | 0% | 58% | 0% | 0% | 27% | 0% | 0% | 0% | 8% | 14% | 0% | 1% | 0% | 0% | 2% | 0% | inhibition (AKT2 (human)): 0%; inhibition (RPS6KA5 KD1 (human)): 0%; inhibition (PRKCG (human)): 0%; inhibition (RPS6KA3 KD1 (human)): 8%; inhibition (SGK2 (human)): 0%; inhibition (PRKACB (human)): 0% |
| O=S(=O)(NCCNC/C=C/c1ccc(Br)cc1)c1cccc2cnccc12 | 41% | 34% | 0% | 0% | 80% | 17% | 12% | 10% | 0% | 87% | 40% | 2% | 9% | 5% | 0% | 10% | 0% | 0% | 21% | 15% | inhibition (AKT2 (human)): 0%; inhibition (RPS6KA5 KD1 (human)): 0%; inhibition (PRKCG (human)): 0%; inhibition (PRKACA (mouse)): 67%; inhibition (RPS6KA3 KD1 (human)): 5%; inhibition (PRKACB (human)): 75% |
| O=C1NC(=O)c2cc(Nc3ccc(F)cc3)c(Nc3ccc(F)cc3)cc21 | 12% | 1% | 3% | – | 0% | 19% | 0% | 0% | 0% | 8% | 12% | 3% | 0% | 0% | 10% | 0% | 0% | 0% | 15% | 0% | inhibition (AKT2 (human)): 0%; inhibition (RPS6KA5 KD1 (human)): 0%; inhibition (PRKACA (mouse)): 13%; inhibition (RPS6KA3 KD1 (human)): 0%; inhibition (SGK2 (human)): 0%; inhibition (PRKACB (human)): 8% |
| CO[C@@H]1[C@H](N(C)C(=O)c2ccccc2)C[C@H]2O[C@]1(C)n1c3ccccc3c3c4c(c5c6ccccc6n2c5c31)C(=O)NC4 | 43% | 60% | 70% | 29% | 65% | 56% | 38% | 52% | 56% | 71% | 55% | 44% | 57% | 75% | 10% | 70% | 26% | 23% | 55% | 31% | inhibition (RPS6KA5 KD1 (human)): 66%; inhibition (PRKCG (human)): 52%; inhibition (PRKACA (mouse)): 63%; inhibition (RPS6KA3 KD1 (human)): 79%; inhibition (SGK2 (human)): 22%; inhibition (PRKACB (human)): 81% |
| O=C(c1ccc(Nc2nccc(-c3cc4ccccc4s3)n2)cc1)N1CCC(N2CCCC2)CC1 | 62% | – | 0% | 18% | 0% | 8% | 15% | 4% | 4% | 29% | 38% | 32% | 40% | 10% | 9% | 0% | 19% | 0% | 0% | 0% | inhibition (AKT2 (human)): 0%; inhibition (RPS6KA5 KD1 (human)): 0%; inhibition (PRKCG (human)): 13%; inhibition (PRKACA (mouse)): 12%; inhibition (RPS6KA3 KD1 (human)): 2%; inhibition (SGK2 (human)): 69%; inhibition (PRKACB (human)): 12% |
| CCN(CC)CCNC(=O)c1c(C)[nH]c(/C=C2\C(=O)Nc3ccc(F)cc32)c1C | 42% | 39% | 69% | 0% | 22% | 0% | 30% | 0% | 86% | 25% | 7% | 22% | 22% | 69% | 10% | 86% | 0% | 0% | 28% | 26% | inhibition (PRKCG (human)): 0%; inhibition (PRKACA (mouse)): 2%; inhibition (RPS6KA3 KD1 (human)): 59%; inhibition (SGK2 (human)): 44%; inhibition (PRKACB (human)): 0% |
| Cn1cc(C2=C(c3cn(CCCSC(=N)N)c4ccccc34)C(=O)NC2=O)c2ccccc21 | 65% | 81% | 89% | 76% | 63% | 63% | 10% | 91% | 71% | 32% | 93% | 13% | 71% | 80% | 2% | 56% | 2% | 36% | 62% | 78% | inhibition (AKT2 (human)): 28%; inhibition (RPS6KA5 KD1 (human)): 64%; inhibition (PRKACA (mouse)): 62%; inhibition (RPS6KA3 KD1 (human)): 87%; inhibition (SGK2 (human)): 34%; inhibition (PRKACB (human)): 73% |
| COc1cc2c(Nc3ccc(NC(=O)c4ccccc4)cc3)ncnc2cc1OCCCN1CCOCC1 | 0% | 0% | 2% | 9% | 0% | 1% | 66% | 0% | 5% | 7% | 0% | 55% | 0% | 3% | 0% | 0% | 13% | 2% | 9% | 0% | inhibition (AKT2 (human)): 0%; inhibition (RPS6KA5 KD1 (human)): 0%; inhibition (PRKCG (human)): 6%; inhibition (PRKACA (mouse)): 7%; inhibition (SGK2 (human)): 0%; inhibition (PRKACB (human)): 0% |

From the kinase profiling compilation of Christmann-Franck et al. (2016)
